Experiment [1] relates to HCV genotype 1a replicon cell line (APC89; Huh7.5 cell background). Nature of the experiment: HCV Genotype 1a Replicon Assay (NS3-specific protease activity readout). Format: cell-based. To be noted: Hepatitis C virus, 72 hour incubation, read-out: Genotype 1a (pEC50 class, HCV genotype 1a replicon assay) (converted). Summed up: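 EC50 values came from a 4-parameter robust fit of fluorescence (ex 340, em 509 nm) produced by NS3-specific protease in lysates, assayed with 15 μM FRET substrate for 20 min at 37° C, after 48 or 72 hours of compound exposure (0.5% DMSO) of Huh7.5-derived APC89 genotype 1a replicon cells.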
In general terms: In antiviral work, replicon cells carry a viral genome segment that copies itself.

The subject of experiment [2] is HCV genotype 1b replicon cell line (APC144; Huh7 cell background). Nature of the experiment: HCV Genotype 1b Replicon Assay (Renilla luciferase readout). Format: cell-based. To be noted: Hepatitis C virus, Huh-7; read-out: Genotype 1b (pEC50 class, HCV genotype 1b replicon assay) (converted). Summed up: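 Reported as pEC50 derived from a 4-parameter fit of Renilla luciferase activity against concentration. Replicon cells (APC144, Huh7 background) were exposed to compound for 48 h in G418-free medium with final 0.5% DMSO, after seeding at 10,000 cells/well and 4 h adherence.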

As to `CNC(=O)N1C[C@@H](C)N(c2ccc(C(=O)Nc3cc(C(F)(F)F)c(-c4ccc(-c5c[nH]c([C@@H]6CCCN6C(=O)[C@@H](NC(=O)OC)C(C)C)n5)cc4)cc3Cl)cn2)C[C@@H]1C` [Example 64], the EC50 in experiment [1] and in experiment [2] was less than 0.1 nM throughout.

Turning to `CNC(=O)N1CCN(c2ccc(C(=O)Nc3ccc(-c4ccc(-c5c[nH]c([C@@H]6CCCN6C(=O)[C@@H](NC(=O)OC)C(C)C)n5)cc4)c(C)c3)cn2)[C@H](C)C1` [Example 18], the EC50 in experiment [1] was 0.1 to 1 nM; in experiment [2], less than 0.1 nM.

As to `COC(=O)N[C@H](C(=O)N1CCC[C@H]1c1nc(-c2ccc(-c3ccc(NC(=O)c4ccc(N5C[C@H](C)N(C(=O)[C@H]6CC6(C)C)C[C@H]5C)nc4)c(C)n3)cc2)c[nH]1)C(C)C` [Example 71, {(S)-1-[(S)-2-(4-{4-[5-({6-[(2R,5S)-4-((S)-2,2-Dimethyl-cyclopropanecarbonyl)-2,5-dimethyl-piperazin-1-yl]-pyridine-3-carbonyl}-amino)-6-methyl-pyridin-2-yl]-phenyl}-1H-imidazol-2-yl)-pyrrolidine-1-carbonyl]-2-methyl-propyl}-carbamic acid methyl ester], the EC50 in experiment [1] was 0.1 to 1 nM; in experiment [2], less than 0.1 nM.
